From patent US20260083704A1, “LXR MODULATORS WITH BICYCLIC CORE MOIETY FOR TREATING DYSLIPIDEMIAS” (OrsoBio, Inc., priority 2022, published 2026)
Where two headings read alike, the source gives them in different places.

Experiments:
[1] = biological target: T1, GST-LXRβ ligand-binding domain (Homo sapiens, UniProt P55055); test: TR-FRETβ activity assay (NCoA3 coactivator peptide recruitment); type: biochemical; settings: 1 μM 24(S)-25-epoxycholesterol prestimulation
T1 construct: amino acids 156-461; NP009052; made in house; host or cells: E. coli
T1 sequence (P55055 156-460 limits assumed): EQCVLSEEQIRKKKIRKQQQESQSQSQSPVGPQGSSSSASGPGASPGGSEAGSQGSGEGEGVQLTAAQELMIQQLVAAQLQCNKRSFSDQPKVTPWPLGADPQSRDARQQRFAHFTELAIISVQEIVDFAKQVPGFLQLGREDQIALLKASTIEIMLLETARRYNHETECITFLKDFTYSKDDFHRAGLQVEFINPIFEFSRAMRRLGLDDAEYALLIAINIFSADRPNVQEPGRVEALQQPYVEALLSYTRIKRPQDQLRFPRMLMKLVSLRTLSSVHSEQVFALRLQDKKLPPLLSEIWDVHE
Summary of the method: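 Inverse-agonist format, with LXR prestimulated by 1 μM 24(S)-25-epoxycholesterol in pH 6.8 Tris/HCl, 240 mM KCl, BSA and Triton. Ten concentrations from 50 μM to 0.002 μM were equilibrated 1 h at 4° C with 76 nM GST-LXRβ LBD and 400 nM biotin-NCoA3 peptide. Peptide recruitment detected by 665/615 nm TR-FRET.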

LXRα [2] = biological target: T2, LXRα (Homo sapiens, UniProt Q13133); test: LXR Gal4 reporter transient transfection assay (mammalian two-hybrid, HEK293), LXRα; type: cell-based; settings: ligand-binding domain (LBD) of LXRα, HEK293; read-out: LBD-M2H Gal4α
T2 construct: expressed in transfected cells; host or cells: HEK293
T2 sequence (Q13133 155-447): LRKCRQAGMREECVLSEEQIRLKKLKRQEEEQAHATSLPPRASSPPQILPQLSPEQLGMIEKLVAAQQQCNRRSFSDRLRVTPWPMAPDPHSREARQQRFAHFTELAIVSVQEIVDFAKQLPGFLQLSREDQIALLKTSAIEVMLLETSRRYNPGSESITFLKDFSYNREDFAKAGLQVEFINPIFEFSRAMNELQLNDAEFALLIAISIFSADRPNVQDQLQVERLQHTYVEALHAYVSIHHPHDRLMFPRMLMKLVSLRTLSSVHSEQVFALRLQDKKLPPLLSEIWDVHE
Description: (§1) LXRα and LXRβ activity status was determined via detection of interaction with coactivator and corepressor proteins in mammalian two-hybrid experiments (M2H). For this, via transient transfection the full length (FL) proteins of LXRα (amino acids 1-447; NP005684; SEQ ID NO:1) or LXRβ-(amino acids 1-461; NP009052; SEQ ID NO:2) or the ligand-binding domains (LBD) of LXRα (amino acids 155-447 SEQ ID NO:3) or LXRβ (amino acids 156-461; SEQ ID NO:4) were expressed from pCMV-AD (Stratagene) as fusions to the transcriptional activation domain of NFkB. As cofactors, domains of either the steroid receptor coactivator 1 (SRC1; amino acids 552-887; SEQ ID NO:5) or of the corepressor NCoR (amino acids 1906-2312; NP006302; SEQ ID NO:6) were expressed as fusions to the DNA binding domain of the yeast transcription factor GAL4 (from pCMV-BD; Stratagene). Interaction was monitored via activation of a coexpressed Firefly Luciferase Reporter gene under control of a promoter containing repetitive GAL4 response elements (vector pFRLuc; Stratagene). Transfection efficiency was controlled via cotransfection of constitutively active pRL-CMV Renilla reniformis luciferase reporter (Promega). HEK293 cells were grown in minimum essential medium (MEM) with 2 mM L-glutamine and Earle's balanced salt solution supplemented with 8.3% fetal bovine serum, 0.1 mM non-essential amino acids, 1 mM sodium pyruvate, at 37° C. in 5% CO2. 3.5×10^4 cells/well were plated in 96-well cell culture plates in growth medium supplemented with 8.3% fetal bovine serum for 16-20 h to ˜90% confluency. For transfection, medium was taken off and LXR and cofactor expressing plasmids as well as the reporter plasmids are added in 30 μL OPTIMEM/well including polyethylene-imine (PEI) as vehicle. Typical amounts of plasmids transfected/well: pCMV-AD-LXR (5 ng), pCMV-BD-cofactor (5 ng), pFR-Luc (100 ng), pRL-CMV (0.5 ng). Compound stocks were prepared in DMSO, prediluted in MEM to a total volume of 120 μL, and added 4 h after addition of the transfection mixture (final vehicle concentration not exceeding 0.2%). Cells were incubated for additional 16 h, lysed for 10 min in 1×Passive Lysis Buffer (Promega) and Firefly and Renilla luciferase activities were measured sequentially in the same cell extract using buffers containing D-luciferine and coelenterazine, respectively. Measurements of luminescence were done in a BMG-luminometer.
(§2) The potencies of Compound 21/3 and its analog, Compound pre-6/3, against LXRα and LXRβ were evaluated in biochemical binding assays, cellular mammalian two-hybrid (M2H) interaction assays evaluating nuclear receptor co-repressor (NCOR) recruitment, and cellular reporter assays evaluating transcriptional activity (Table 5).

LXRβ [3] = biological target: T3, LXRβ (Homo sapiens, UniProt P55055); test: LXR Gal4 reporter transient transfection assay (mammalian two-hybrid, HEK293), LXRβ; type: cell-based; settings: ligand-binding domain (LBD) of LXRβ, HEK293; read-out: LBD-M2H Gal4β
T3 construct: LXRβ (amino acids 156-461); expressed in transfected cells; host or cells: HEK293
T3 sequence (P55055 156-460): T1 sequence (P55055 156-460 limits assumed)
Summary of the method: (§3)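 Mammalian two-hybrid read-out of LXR–coactivator (SRC1) or corepressor (NCoR) interaction: firefly luciferase under GAL4 response elements, normalised via Renilla co-transfection. LXRα/β full-length or LBD fusions expressed transiently in HEK293; compounds (final DMSO ≤0.2%) given 4 h after transfection for 16 h before lysis.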

[4] = Pharmacokinetics in mice after single oral dosing (blood/plasma and liver exposure); type: in vivo; settings: 20 mg/kg single oral dose, time point 4 h
Description: The pharmacokinetics of the compounds was assessed in mice after single dosing and oral administrations. Blood/plasma and liver exposure was measured via LC-MS.
The study design was as follows: • Animals: C57/bl6/J (Janvier) males • Diet: standard rodent chow • Dose: 20 mg/kg • Animal handling: animals were withdrawn from food at least 12 h before administration • Design: single dose oral administration, n=3 animals per group • Sacrifice: at stated time point (4, 12 or 24 h) after administration • Bioanalytics: LC-MS of liver and blood/plasma samples

LXRα [5] = biological target: T4, LXRα (Homo sapiens, UniProt Q13133); test: LXR Gal4 reporter transient transfection assay (mammalian two-hybrid, HEK293), LXRα; type: cell-based; design: expressed in transfected cells; host or cells: HEK293; settings: full length (FL) LXRα, HEK293; read-out: FL-M2H Gal4α
T4 sequence (Q13133 1-447): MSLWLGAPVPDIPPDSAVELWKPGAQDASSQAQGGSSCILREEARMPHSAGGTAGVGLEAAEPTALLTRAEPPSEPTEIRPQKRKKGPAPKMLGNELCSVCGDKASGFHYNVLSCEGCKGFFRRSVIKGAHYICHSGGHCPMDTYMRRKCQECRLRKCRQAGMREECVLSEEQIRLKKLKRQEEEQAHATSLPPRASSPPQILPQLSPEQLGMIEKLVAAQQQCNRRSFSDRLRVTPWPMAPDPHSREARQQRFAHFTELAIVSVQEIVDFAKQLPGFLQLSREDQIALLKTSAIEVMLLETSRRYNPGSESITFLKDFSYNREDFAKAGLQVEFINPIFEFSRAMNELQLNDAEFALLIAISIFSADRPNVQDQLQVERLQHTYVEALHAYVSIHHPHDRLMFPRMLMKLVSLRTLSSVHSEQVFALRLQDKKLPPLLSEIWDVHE
Description: as §1, §2

LXRβ [6] = biological target: T5, LXRβ (Homo sapiens, UniProt P55055); test: LXR Gal4 reporter transient transfection assay (mammalian two-hybrid, HEK293), LXRβ; type: cell-based; design: LXRβ (amino acids 156-461); expressed in transfected cells; host or cells: HEK293; settings: full length (FL) LXRβ, HEK293; read-out: FL-M2H Gal4β
T5 sequence (P55055 1-460): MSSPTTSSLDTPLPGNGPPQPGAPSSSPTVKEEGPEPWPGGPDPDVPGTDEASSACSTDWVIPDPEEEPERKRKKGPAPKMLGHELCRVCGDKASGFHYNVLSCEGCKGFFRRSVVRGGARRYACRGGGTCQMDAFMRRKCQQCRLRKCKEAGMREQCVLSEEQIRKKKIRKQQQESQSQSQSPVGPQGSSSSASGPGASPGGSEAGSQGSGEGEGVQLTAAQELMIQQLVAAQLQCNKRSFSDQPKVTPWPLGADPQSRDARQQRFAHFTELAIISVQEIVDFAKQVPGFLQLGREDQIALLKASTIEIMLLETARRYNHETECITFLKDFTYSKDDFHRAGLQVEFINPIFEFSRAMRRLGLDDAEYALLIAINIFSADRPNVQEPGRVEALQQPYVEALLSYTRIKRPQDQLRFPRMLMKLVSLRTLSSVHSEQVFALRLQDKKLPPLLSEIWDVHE
Summary of the method: as §3

Cc1cccc(S(=O)(=O)n2c(-c3cccc(N4CC(C(=O)O)C4)c3)c(-c3ccsc3C#N)c3cc(F)ccc32)c1 [3/8]
EC50 [1]: 1000 to 10000 nM | EC50 (LXRα [2]): 100 to 1000 nM | EC50 (LXRβ [3]): < 100 nM

COc1ccc(S(=O)(=O)n2c(-c3cccs3)c(-c3ccsc3C#N)c3ccccc32)cc1 [20/14]
EC50 [1]: 100 to 1000 nM | EC50 (LXRα [2]): < 100 nM | EC50 (LXRβ [3]): < 100 nM

Cc1ccc(S(=O)(=O)n2c(-c3cccc(-c4ccc(CN5CCN(C)CC5)cc4)c3)c(-c3ccsc3C#N)c3cc(F)ccc32)cc1 [Compound 8]
EC50 [1]: 100 to 1000 nM | blood/plasma exposure [4]: B (300 nM to ≤1 μM) | liver exposure [4]: D (>3 μM) | liver/blood ratio [4]: B (3 to ≤10) | EC50 (LXRα [5]): 100 to 1000 nM | EC50 (LXRβ [6]): < 100 nM

N#Cc1sccc1-c1c(-c2cccs2)n(S(=O)(=O)c2ccc(Cl)cc2)c2ccc(O)cc12 [Compound 13]
EC50 [1]: 100 to 1000 nM | EC50 (LXRα [2]): < 100 nM | EC50 (LXRβ [3]): < 100 nM

N#Cc1sccc1-c1c(-c2cccs2)n(S(=O)(=O)c2ccc(Cl)cc2)c2ccc(OCC(=O)O)cc12 [Compound 15]
EC50 [1]: > 10000 nM | EC50 (LXRα [2]): 1000 to 10000 nM | EC50 (LXRβ [3]): > 10000 nM

O=S(=O)(c1ccc(Cl)cc1)n1c(-c2cccs2)c(-c2ccsc2Cl)c2ccccc21 [Compound 20]
EC50 [1]: 100 to 1000 nM | EC50 (LXRα [2]): < 100 nM | EC50 (LXRβ [3]): < 100 nM

N#Cc1sccc1-c1c(-c2cccs2)n(S(=O)(=O)c2ccc(Cl)cc2)c2ccc(C(=O)O)cc12 [Compound 23]
EC50 [1]: > 10000 nM | EC50 (LXRα [2]): 100 to 1000 nM | EC50 (LXRβ [3]): 100 to 1000 nM

N#Cc1sccc1-c1c(-c2cncs2)n(S(=O)(=O)c2ccc(Cl)cc2)c2ccccc12 [Compound 25]
EC50 [1]: 1000 to 10000 nM | EC50 (LXRα [2]): 100 to 1000 nM | EC50 (LXRβ [3]): < 100 nM

COc1ccc(S(=O)(=O)n2c(-c3ccc(CCC(N)=O)cc3)c(-c3ccsc3C#N)c3ccccc32)cc1 [Compound 28]
EC50 [1]: 1000 to 10000 nM | EC50 (LXRα [2]): 1000 to 10000 nM | EC50 (LXRβ [3]): 100 to 1000 nM

Cc1ccc(S(=O)(=O)n2c(-c3cccc(C4CC4C(=O)O)c3)c(-c3ccsc3C#N)c3ccccc32)cc1 (stereo not drawn) [Compound 30]
EC50 [1]: 100 to 1000 nM | EC50 (LXRα [2]): < 100 nM | EC50 (LXRβ [3]): < 100 nM

Cc1ccc(S(=O)(=O)n2c(-c3cccc(-c4cccc(C(=O)NS(C)(=O)=O)c4)c3)c(-c3ccsc3C#N)c3ccccc32)cc1 [Compound 32]
EC50 [1]: 100 to 1000 nM | EC50 (LXRα [2]): 100 to 1000 nM | EC50 (LXRβ [3]): 100 to 1000 nM

Cc1ccc(S(=O)(=O)n2c(-c3cccc(-c4cnc(C(=O)O)cc4C)c3)c(-c3ccsc3C#N)c3cc(F)ccc32)cc1 [Compound 36]
EC50 [1]: 1000 to 10000 nM | EC50 (LXRα [5]): 100 to 1000 nM | EC50 (LXRβ [6]): 100 to 1000 nM

Cc1ccc(S(=O)(=O)n2c(-c3cccc(-c4ccc(-c5nnn[nH]5)cc4Cl)c3)c(-c3ccsc3C#N)c3cc(F)ccc32)cc1 [Compound 37]
EC50 [1]: 100 to 1000 nM | EC50 (LXRα [5]): < 100 nM | EC50 (LXRβ [6]): < 100 nM

N#Cc1cccc(C#N)c1-c1c(-c2cccc(-c3ccc(C(=O)O)cc3Cl)c2)n(S(=O)(=O)c2ccc(C(F)F)cc2)c2cc(F)c(O)cc12 [Compound 44]
EC50 [1]: 100 to 1000 nM | EC50 (LXRα [5]): < 100 nM | EC50 (LXRβ [6]): < 100 nM
